Test results from PMC6814236, “Monitoring and characterizing soluble and membrane-bound ectonucleotidases CD73 and CD39” (PLoS ONE, 2019).

Key:
[1] = molecular target: T1, membrane-associated CD73 of MDA-MB-231 cells (Homo sapiens, UniProt P21589); experiment: Cell-based membrane-associated CD73 activity (AMP-Glo cell-based assay)
T1 construct: cell-based membrane-associated CD73 from MDA-MB-231 following AMP-Glo cell-based assay; endogenous in cells; host or cells: MDA-MB-231
T1 sequence (P21589 27-574): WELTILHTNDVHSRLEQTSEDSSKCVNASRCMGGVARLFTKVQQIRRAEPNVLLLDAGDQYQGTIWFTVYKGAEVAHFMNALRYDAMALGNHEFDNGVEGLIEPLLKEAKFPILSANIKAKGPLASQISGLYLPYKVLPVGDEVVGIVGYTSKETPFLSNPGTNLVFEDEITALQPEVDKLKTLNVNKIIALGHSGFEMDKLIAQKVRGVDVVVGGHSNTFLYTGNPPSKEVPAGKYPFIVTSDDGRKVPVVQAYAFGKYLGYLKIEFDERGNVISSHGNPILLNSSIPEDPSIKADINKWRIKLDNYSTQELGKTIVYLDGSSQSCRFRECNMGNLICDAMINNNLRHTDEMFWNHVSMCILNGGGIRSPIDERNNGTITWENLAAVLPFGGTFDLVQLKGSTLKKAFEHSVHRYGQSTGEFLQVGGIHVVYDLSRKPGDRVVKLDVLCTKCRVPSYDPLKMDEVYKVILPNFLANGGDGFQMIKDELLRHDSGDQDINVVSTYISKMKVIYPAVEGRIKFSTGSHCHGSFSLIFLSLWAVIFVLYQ
Experimental: • Adherent Cells preparation and assay protocol. Cells grown in 75cm^2 flasks were trypsinized and counted, and were diluted with full medium, and plated to a tissue culture grade solid white or clear bottom plate, at cell density of 25K cells in full medium (10% FBS and 1% Pen/Strep) per well, and kept overnight at 37°C in a 5% CO2 incubator. Fresh medium was added an hour before use by pipetting out ¾ volume of overnight medium from each well and replaced with a ¾ volume of fresh full growing medium. Cells were washed twice with HBSS by taking out whole medium from each well and replaced with fresh 100μl of HBSS to each well. […]
For CD73 activity using AMP as substrate, 25μl aliquots were withdrawn from each well at the desired time point and added to assay solid white plate (Corning Costar 3912 or equivalent) followed by the addition of 25μl of AMP-Glo™ Reagent I to each well, mixed well and incubated for 30min at 23°C.This was followed by the addition of 50μl per well of AMP-Glo™ Detection Solution (1ml of Kinase-Glo™ One Solution mixed with 10μl of AMP-Glo™ Reagent II), see AMP-Glo™ TM#384. This was followed by incubating the mixture for 60min at 23°C, before reading the plate using a luminometer. […]

[2] = test system: T2, membrane-associated CD39 of Farage cells; experiment: Cell-based membrane-associated CD39 activity; parameters: species or system human; conditions: 50μM inhibitor, Farage cells 200K per ml, 5 μM ATP, 37°C
T2 construct: endogenous in cells; host or cells: Farage
Experimental: For CD39 activity, since it uses both ADP and ATP, we determined its activity using 5 μM final concentration each, as substrate as described above. In a separate plate or microcentrifuge tube, a 25μl aliquots were withdrawn from each well at desired time point and delivered into an assay solid white plate (Corning Costar 3912 or equivalent).
For ADP as substrate, detection of remaining ADP was carried out by preparing AMP Detection Solution (adding 10μl AMP-Glo™ Reagent II to one-ml of Kinase-Glo® One Solution, gently mixing well by inverse tube couple times). To the 25 μl aliquoted from the medium supernatant that was cooled down to room temperature, 25μl of AMP Detection Solution is added to each well, mixed well and incubated for 60min at 23°C, the plates were read using luminometer.
For ATP as substrate, detection of remaining ATP, was carried out using 25μl withdrawn from the medium supernatant that was cooled down to room temperature and 25μl of Kinase-Glo® One Solution were added to each well, mixed well and incubated for 10min at 23°C, then the plate was read using luminometer.
• B Suspension cells. Cells were harvested and washed two times with HBSS by centrifugation at 1,000 rpm at room temperature for 8~10min, discarding the supernatant and cell pellets were diluted to a desired cell number per ml before experiments. […]

Compound | inhibition of membrane-associated CD73 activity ([1]; 50μM inhibitor, 25k MDA-MB-231 cells per well, 10μM AMP, 37°C, time course) | IC50 ([1]; 25K cells per well, 5μM AMP, 90min at 37°C) [µM] | inhibition of membrane-associated CD39 activity [2]
Nc1ncnc2c1ncn2[C@@H]1O[C@H](COP(=O)(O)CP(=O)(O)O)[C@@H](O)[C@H]1O [AMP-CP, Adenosine 5'-(α, β-methylene) diphosphate] | inhibited | 2.1 | 
[Na+].[Na+].[Na+].[Na+].[Na+].[Na+].[O]=[W](=[O])([O-])[O-].[O]=[W](=[O])([O-])[O-].[O]=[W](=[O])([O-])[O-].[O]=[W](=[O])=[O].[O]=[W](=[O])=[O].[O]=[W](=[O])=[O].[O]=[W](=[O])=[O].[O]=[W](=[O])=[O].[O]=[W](=[O])=[O].[O]=[W](=[O])=[O].[O]=[W](=[O])=[O].[O]=[W](=[O])=[O] [POM1, Sodium metatungstate] |  |  | inhibited
